Common to all, as to assay type: cell-based
For series [1], the system named is rat primary hippocampal cell culture. As to the kind of experiment: intracellular calcium release in hippocampal cells (Fluo4-AM). Particulars: 10^−5, 10^−4 and 10^−3 M AEME. As to the method:
Hippocampal cells were removed from the plates and previously incubated with Fluo4-AM dye (Invitrogen) dissolved in Neurobasal medium (Gibco®) for one hour[46]. The cells were centrifuged (300 g for 5 minutes at 20 °C), washed with phosphate buffer solution (PBS) without calcium, and plated in microscopy confocal (Zeiss LSM 510, Meta) microplates pretreated with poli-L-lysine. The fluorescence was measured for 90 seconds in the absence and/or in the presence of 10^−5, 10^−4 and 10^−3 M AEME. After this period, 250 mM KCl was added in order to promote neuronal […] and, thus, verify its viability. All measurements were performed with a PBS free-calcium solution. Digitalized images were analyzed through the software Origin 5.
A general note: Calcium assays in cells follow changes in intracellular calcium, usually with a dye or a luminescent sensor.

For the next series, the target named is T1, Rat M3 mAChR (Rattus norvegicus, UniProt P08483).
T1 construct: host or cells: CHO (CHO-K1) cells
T1 sequence (P08483 whole entry): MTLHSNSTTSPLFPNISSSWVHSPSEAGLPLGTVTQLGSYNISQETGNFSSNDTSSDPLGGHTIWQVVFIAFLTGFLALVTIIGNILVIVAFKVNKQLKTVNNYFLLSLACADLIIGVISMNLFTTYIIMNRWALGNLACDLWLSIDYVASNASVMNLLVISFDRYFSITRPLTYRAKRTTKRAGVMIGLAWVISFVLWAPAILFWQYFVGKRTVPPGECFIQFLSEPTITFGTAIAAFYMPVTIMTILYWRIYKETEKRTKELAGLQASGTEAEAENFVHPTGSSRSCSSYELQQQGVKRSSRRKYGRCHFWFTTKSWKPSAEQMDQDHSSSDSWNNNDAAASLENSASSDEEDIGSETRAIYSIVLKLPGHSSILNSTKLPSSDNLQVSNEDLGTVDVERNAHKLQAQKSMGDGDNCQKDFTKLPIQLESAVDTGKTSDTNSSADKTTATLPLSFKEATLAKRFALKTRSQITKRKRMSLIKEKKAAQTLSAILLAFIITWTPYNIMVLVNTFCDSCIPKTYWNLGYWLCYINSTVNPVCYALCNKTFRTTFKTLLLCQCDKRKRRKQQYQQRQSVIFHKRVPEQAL
The series is described as follows: calcium mobilization assay in CHO cells. The procedure: CHO cells expressing rM1, rM3 and rM5 were plated at 4 × 10^4 cells per well, whereas rM2 and rM4 were plated at 6 × 10^4 cells per well, in standard growth media (as described previously under “cell culture”) in 96-well plates 24 hours before assay and were incubated overnight at 37 °C in 5% CO2. […] Cells were incubated for 45 minutes (37 °C, 5% CO2) for dye loading. Fluo4-AM dye was removed, cells were washed and replaced with 40 μL of calcium assay buffer. AEME concentration-response curves were determined in single-add experiments. […] All compounds were dissolved in dimethyl sulfoxide (DMSO) and then in calcium assay buffer to obtain a final DMSO concentration of 0.3%. […] These values were fit using GraphPad Prism version 5.0 to determine EC50 values and Schild slope and pA2 in the Schild analyses.

Series [2] relates to rat primary hippocampal cell culture. The series is described as follows: MTT viability assay, AEME-induced neurotoxicity. Particulars: 10^−3 M AEME, 24 hours, % of control. The procedure:
Neuronal viability was evaluated in the hippocampal cell culture using the 3-(4,5-dimethylthiazol-2-yl)-2,5-diphenyltetrazolium bromide (MTT; Sigma) reduction assay, with some modification. Briefly, after 24 hours of incubation with 10^−3 M AEME in the absence and in the presence of 10 nM pirenzepine hydrochloride (M1 selective antagonist; Sigma), 10 nM p-F-HHSiD (M3 selective antagonist; Sigma) and the specific inhibitor of different isoforms of PLC U73122 (10 nM)[55] (Sigma), all the medium was removed, and 100 μL of MTT solution, containing 5 mg/mL MTT in PBS and neurobasal medium without phenol red (1:9, v/v) were added. After 3 hours of incubation with MTT at 37 °C in a humidified atmosphere of 5% CO2, the MTT solution was removed and 200 μL of dimethyl sulfoxide was added to each well. After 30 minutes of shaking, the absorbance was measured at 570 nm in a multiwell plate reader (BioTek Synergy H1 Hybrid Reader). Potassium chloride (250 mM) was used as a positive control of neuronal death. Muscarinic antagonists, as well as the iPLC, were added 30 minutes prior to incubation with AEME. The antagonist concentration used was near the pKi[25][56]. A control containing 0.002% DMSO was used, since the iPLC stock solution was previously dissolved in this solvent. The assay was performed in quadruplicate, and the results were expressed as a percentage of the control value.

A further series deals with T2, Rat M2 mAChR (Rattus norvegicus, UniProt P10980).
T2 construct: host or cells: CHO (CHO-K1) cells
T2 sequence (P10980 1-466): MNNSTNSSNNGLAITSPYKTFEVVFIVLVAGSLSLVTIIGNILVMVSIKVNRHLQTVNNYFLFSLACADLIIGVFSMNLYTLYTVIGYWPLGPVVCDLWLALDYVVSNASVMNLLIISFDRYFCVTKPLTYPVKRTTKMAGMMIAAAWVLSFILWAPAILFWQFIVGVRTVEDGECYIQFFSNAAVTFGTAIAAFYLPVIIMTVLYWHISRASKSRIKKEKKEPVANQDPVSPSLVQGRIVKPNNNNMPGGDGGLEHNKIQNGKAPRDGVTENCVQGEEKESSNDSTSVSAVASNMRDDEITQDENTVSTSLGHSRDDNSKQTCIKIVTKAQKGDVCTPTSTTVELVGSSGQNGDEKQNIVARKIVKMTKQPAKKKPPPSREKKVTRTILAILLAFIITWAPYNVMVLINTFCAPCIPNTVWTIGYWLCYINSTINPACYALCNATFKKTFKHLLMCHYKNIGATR
The series is described as follows: calcium mobilization assay in CHO cells (Gqi5). Particulars: rat M2, 100 μM AEME on ACh curve. The procedure:
(§1) Chinese hamster ovary (CHO) cells individually and stably expressing individual rat mAChRs (rM1 to rM5 mAChRs) were purchased from the American Type Culture Collection (ATCC) and cultured according to ATCC recommendations. To generate stable rM2 and rM4 cell lines for use in calcium mobilization assays, rM2 and rM4-expressing cells were stably transfected with a chimeric G protein (Gqi5) using Lipofectamine 2000 (Invitrogen). rM2 and rM4 cells were grown in Ham’s F-12 medium containing 10% heat-inactivated fetal bovine serum (FBS), 2 mM GlutaMAX (Gibco®), 20 mM HEPES, 500 μg/mL G418 sulfate, 200 μg/mL hygromycin B and an antibiotic-antimycotic solution (Gibco®). rM1, rM3 and rM5 mAChR-CHO cells were grown in the same medium without hygromycin B[48]. CHO cells were cultured in a 150 mm-diameter cell culture-treated dishes (Corning®) at 37 °C and 5% CO2 until complete confluence.
(§2) CHO cells expressing rM1, rM3 and rM5 were plated at 4 × 10^4 cells per well, whereas rM2 and rM4 were plated at 6 × 10^4 cells per well, in standard growth media (as described previously under “cell culture”) in 96-well plates 24 hours before assay and were incubated overnight at 37 °C in 5% CO2. […] Cells were incubated for 45 minutes (37 °C, 5% CO2) for dye loading. […] AEME concentration-response curves were determined in single-add experiments. […]

Another series deals with T3, Rat M4 mAChR (Rattus norvegicus, UniProt P08485).
T3 construct: host or cells: CHO (CHO-K1) cells
T3 sequence (P08485 1-478): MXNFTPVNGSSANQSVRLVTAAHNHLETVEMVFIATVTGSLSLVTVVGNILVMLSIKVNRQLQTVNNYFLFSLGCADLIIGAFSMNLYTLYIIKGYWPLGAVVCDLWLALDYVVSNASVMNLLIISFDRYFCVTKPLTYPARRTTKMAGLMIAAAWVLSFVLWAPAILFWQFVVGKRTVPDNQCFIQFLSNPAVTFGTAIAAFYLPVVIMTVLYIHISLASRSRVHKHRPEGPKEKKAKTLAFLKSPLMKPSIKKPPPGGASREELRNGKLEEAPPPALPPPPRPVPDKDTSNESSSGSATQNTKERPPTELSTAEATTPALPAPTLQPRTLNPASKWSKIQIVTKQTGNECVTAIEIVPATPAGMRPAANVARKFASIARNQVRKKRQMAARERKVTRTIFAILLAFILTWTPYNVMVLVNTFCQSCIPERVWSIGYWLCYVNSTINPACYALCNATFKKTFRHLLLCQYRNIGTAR
As to the kind of experiment: calcium mobilization assay in CHO cells (Gqi5). The following applies: rat M4, 100 μM AEME on ACh curve. The procedure:
as §1, §2

A word on the EC50: it is the concentration that produces a half-maximal response.

With `COC(=O)C1=CC[C@@H]2CC[C@H]1N2C` [AEME, anhydroecgonine methyl ester], the intracellular calcium release result in series [1] is reported as “concentration-dependent increase”. In addition, the figures for the mechanism of action entry at Rat M3 mAChR (rat M3), at Rat M2 mAChR and on Rat M4 mAChR were “partial agonist-activity”, “antagonized the effects of ACh” and “antagonized the effects of ACh”, respectively. Also, on Rat M3 mAChR (rat M3, agonist mode), the “% of the maximum acetylcholine response” value amounted to 27.2%. For the same compound, at Rat M3 mAChR (rat M3, agonist mode (single-add)), the EC50 was more than 100 µM. For the same compound, the viable cells in series [2] is 67.2%.

Values taken from PMC4667193 (Scientific Reports, 2015).
